Data taken from ChEMBL document CHEMBL1201862, “PubChem BioAssay data set” (2004).
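Dose response: 5 concentrations. Exposure: 48 h. Format: 96-well plates. Endpoint: linear interpolation; highest concentration if not reached. Here, GI50 denotes the concentration required for 50% inhibition of growth.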 Active and inactive are the calls of the source. No stated cut-off is given here; in the data, active = GI50 up to about 1.1 µM and inactive = higher.

Legend:
Experiment in all cases: DTP human tumour cell line panel, 48 h
BT-549 = test system: BT-549
DU-145 = test system: DU-145
HCT-116 = test system: HCT-116
HCT-15 = test system: HCT-15
HL-60 = test system: HL-60
HT-29 = test system: HT-29
K562 = test system: K562
KM12 = test system: KM12
MDA-MB-231 = test system: MDA-MB-231
MOLT-4 = test system: MOLT-4
Malme-3M = test system: Malme-3M
NCI-H460 = test system: NCI-H460
OVCAR-8 = test system: OVCAR-8
RPMI-8226 = test system: RPMI-8226
SF-295 = test system: SF-295
SK-OV-3 = test system: SK-OV-3
UACC-62 = test system: UACC-62
UO-31 = test system: UO-31
NCI-H23 = test system: NCI-H23
RXF 393 = test system: RXF 393

SMILES | GI50 (BT-549) | GI50 (DU-145) | GI50 (HCT-116) | GI50 (HCT-15) | GI50 (HL-60) | GI50 (HT-29) | GI50 (K562) | GI50 (KM12) | GI50 (MDA-MB-231) | GI50 (MOLT-4) | GI50 (Malme-3M) | GI50 (NCI-H460) | GI50 (OVCAR-8) | GI50 (RPMI-8226) | GI50 (SF-295) | GI50 (SK-OV-3) | GI50 (UACC-62) | GI50 (UO-31) | GI50 (NCI-H23) | GI50 (RXF 393)
O=C1CC2C(=O)c3ccccc3CC2c2ccccc21 (configuration not stated) | 81.8 µM (inactive) | 50.5 µM (inactive) | 38.6 µM (inactive) | 24.3 µM | 17.9 µM (inactive) | 44.9 µM (inactive) | 21.3 µM (inactive) | 40.6 µM (inactive) | > 100 µM (inactive) | 22.4 µM (inactive) | 39 µM (inactive) | 33 µM (inactive) | 39.5 µM (inactive) | 15.2 µM (inactive) | 49.2 µM (inactive) | > 100 µM (inactive) | 35.7 µM (inactive) | 12 µM (inactive) |  | 
CC(C)=C1C(=O)c2c(Cl)sc(Cl)c2C1=O | 22 µM (inactive) | 22.4 µM (inactive) | 17.2 µM (inactive) | 20.7 µM | 31.3 µM (inactive) | 28.8 µM (inactive) | 37.6 µM (inactive) | 16.5 µM (inactive) | 27.6 µM (inactive) | 36.6 µM (inactive) | 19 µM (inactive) | > 100 µM (inactive) | 19.7 µM (inactive) |  | 39.5 µM (inactive) | > 100 µM (inactive) | 19.9 µM (inactive) | 23.4 µM (inactive) | 17.8 µM (inactive) | 
Cc1nc(N)c(N2CCNCC2)c(O)n1 | > 100 µM (inactive) | > 100 µM (inactive) | > 100 µM (inactive) | > 100 µM | > 100 µM (inactive) | > 100 µM (inactive) | > 100 µM (inactive) | > 100 µM (inactive) | > 100 µM (inactive) | > 100 µM (inactive) | > 100 µM (inactive) | > 100 µM (inactive) | > 100 µM (inactive) | > 100 µM (inactive) | > 100 µM (inactive) |  |  | > 100 µM (inactive) | > 100 µM (inactive) | 
COCCN1C(=O)C2c3[nH]c4ccccc4c3C3CCC(C(C)(C)C)CC3C2C1=O (configuration not stated) | 18.8 µM (inactive) | 19.1 µM (inactive) | 16.4 µM (inactive) | 16.9 µM | 16 µM (inactive) | 13.2 µM (inactive) | 18.9 µM (inactive) | 19.2 µM (inactive) | 17.3 µM (inactive) | > 10 µM (inactive) |  | 14.8 µM (inactive) | 20.7 µM (inactive) | 15.2 µM (inactive) | 18.6 µM (inactive) | 20.2 µM (inactive) | > 10 µM (inactive) | 13.9 µM (inactive) | 22.6 µM (inactive) | 20.4 µM (inactive)
O=C(O)c1[nH]c2c([N+](=O)[O-])cc([N+](=O)[O-])cc2c1C(=O)O | > 100 µM (inactive) | > 100 µM (inactive) | > 100 µM (inactive) | > 100 µM | > 100 µM (inactive) | > 100 µM (inactive) | > 100 µM (inactive) | > 100 µM (inactive) | > 100 µM (inactive) | > 100 µM (inactive) | > 100 µM (inactive) | > 100 µM (inactive) | > 100 µM (inactive) |  | > 100 µM (inactive) | > 100 µM (inactive) | > 100 µM (inactive) | > 100 µM (inactive) | > 100 µM (inactive) | > 100 µM (inactive)
Cc1ccc(S(=O)(=O)N2CCCSCCN(S(=O)(=O)c3ccc(C)cc3)CCCSCC2)cc1 | > 100 µM (inactive) | > 100 µM (inactive) | > 100 µM (inactive) |  | > 100 µM (inactive) | > 100 µM (inactive) | > 100 µM (inactive) | > 100 µM (inactive) | > 100 µM (inactive) | > 100 µM (inactive) |  | > 100 µM (inactive) | > 100 µM (inactive) | > 100 µM (inactive) | > 100 µM (inactive) | > 100 µM (inactive) | > 100 µM (inactive) | 51.8 µM (inactive) | > 100 µM (inactive) | > 100 µM (inactive)
CC[C@@H](/C=C\CCC1(C[C@@H](N)CCC=C(C)C)OCCO1)O[Si](C(C)C)(C(C)C)C(C)C | 20.1 µM (inactive) | 19.8 µM (inactive) | 17.1 µM (inactive) | 18.9 µM | 4.28 µM (inactive) | 17.3 µM (inactive) | 10.8 µM (inactive) | 18.1 µM (inactive) | 19 µM (inactive) | 17.6 µM (inactive) |  | 18.4 µM (inactive) | 11.9 µM (inactive) | 17.9 µM (inactive) | 19 µM (inactive) | 20 µM (inactive) | 17.8 µM (inactive) | 17.6 µM (inactive) | 21.1 µM (inactive) | 19.4 µM (inactive)
O=C(Nc1nn(C(=O)c2ccc(Cl)cc2)c(=O)s1)c1ccc(Cl)cc1 | > 100 µM (inactive) | > 100 µM (inactive) | > 100 µM (inactive) | > 100 µM | > 100 µM (inactive) | > 100 µM (inactive) | 77.8 µM (inactive) | > 100 µM (inactive) | > 100 µM (inactive) | > 100 µM (inactive) | > 100 µM (inactive) | > 100 µM (inactive) | > 100 µM (inactive) |  | > 100 µM (inactive) | > 100 µM (inactive) | > 100 µM (inactive) | > 100 µM (inactive) | > 100 µM (inactive) | 46.9 µM (inactive)
C/C=C(\C)[C@@H](O)C(=O)O[C@@H]1CC(C(C)(C)O)[C@](C)(CCC(=O)OC)[C@H]2[C@H](OC(=O)[C@H](O)[C@H](C)CC)C[C@]3(C)C(=CC[C@H]3[C@H]3CO[C@H](C=C(C)C)C3)[C@]12C (some centres not stated) | 18 µM (inactive) | 29 µM (inactive) | 18 µM (inactive) | 19 µM | 16.7 µM (inactive) | 19 µM (inactive) | 17.8 µM (inactive) | 24.8 µM (inactive) | 19.6 µM (inactive) | 19.7 µM (inactive) |  | 18.5 µM (inactive) | 17.7 µM (inactive) | 15.3 µM (inactive) | 35.4 µM (inactive) |  |  | 17.7 µM (inactive) | 18.4 µM (inactive) | 16.4 µM (inactive)
O=C(/C=C/c1ccccc1)CCc1c(O)c2ccccc2oc1=O | 32.4 µM (inactive) | > 100 µM (inactive) | 35.7 µM (inactive) | 76.7 µM | > 10 µM (inactive) | > 100 µM (inactive) | 49.4 µM (inactive) | 40.8 µM (inactive) | 44 µM (inactive) | 27.7 µM (inactive) | > 100 µM (inactive) | 87.9 µM (inactive) | > 100 µM (inactive) | 32.3 µM (inactive) | > 100 µM (inactive) | > 100 µM (inactive) | 71 µM (inactive) | 63.2 µM (inactive) | 65.5 µM (inactive) | 
O=C(CN1CCN(Cc2ccccc2)CC1)N1CCCn2c1nc1ccccc1c2=O | > 100 µM (inactive) | > 100 µM (inactive) | > 100 µM (inactive) | > 100 µM | > 100 µM (inactive) | > 100 µM (inactive) | > 100 µM (inactive) | > 100 µM (inactive) | > 100 µM (inactive) | > 100 µM (inactive) | > 100 µM (inactive) | > 100 µM (inactive) | > 100 µM (inactive) | > 100 µM (inactive) | > 100 µM (inactive) | > 100 µM (inactive) | > 100 µM (inactive) | > 100 µM (inactive) | > 100 µM (inactive) | 
